Experimental data from patent US8722373B2, “Contaminant control in Zymomonas fermentation using virginiamycin” (E I du Pont de Nemours and Company, priority 2012, dated 2014).

Key:
[1] = tested on: Zymomonas mobilis strain ZM4; settings: concentrations that are safe to use with yeast; Agrawan and Basappa 1996; cited from earlier work
[2] = tested on: Z. mobilis strain ZW705; assay: Tolerance of Z. mobilis to virginiamycin: growth in clarified MD07#3 hydrolysate; assay type: cell-based, Zymomonas mobilis; settings: 2.5 ppm and 5 ppm virginiamycin; clarified cellulosic biomass hydrolysate medium, conditions of Example 1
Protocol: Z. mobilis strain ZW705 (described in General Methods) inoculum was prepared by reviving 2 mL of OD-10 frozen stock in MRM3G6 medium (10 g/L BBL yeast extract, 2 g/L KH2PO4, 1 g/L MgSO4*7H2O, 60 g/L glucose, pH 5.5) at 33° C. for ˜8 hr. This culture was used to inoculate tubes containing clarified MD07#3 hydrolysate (see General Methods) supplemented with 2 g/L yeast extract and various virginiamycin preparations at a 20% (final volume) inoculation rate, producing an initial OD of ˜0.5. Stocks of the virginiamycin-containing agents Lactrol®, Lactoside V™ or Lactoside 247™ were prepared at 1000 ppm in ethanol. These agents were added to the media at 2.5 ppm, 5 ppm, 10 ppm, or 20 ppm. […] The tubes were maintained at 33° C. with shaking for 32 hours, with growth monitored by measuring OD600.

[3] = tested on: L. plantarum; assay: Contaminated Z. mobilis hydrolysate fermentation with Lactrol in the medium (lactic acid); assay type: cell-based, Lactobacillus plantarum; settings: fermentation broth with media containing cellulosic biomass hydrolysate
Protocol: (§1) Fermentation samples were taken at timed intervals and analyzed for EtOH, residual sugars, and other metabolic products such as acetic acid, lactic acid, and glycerol using either a Waters HPLC system (Alliance system, Waters Corp., Milford, Mass.) or an Agilent 1100 Series LC; conditions=0.6 mL/min of 0.01 N H2SO4, injection volume=5 μL, autosampler temperature=10° C., column temperature=55° C., run time=25 min, detection by refractive index (maintained at 40° C.). The HPLC column was purchased from BioRad (Aminex HPX-87H, BioRad Inc., Hercules, Calif.). Analytes were quantified by refractive index detection and compared to known standards.
To determine the Lactrol® dose required to prevent lactic acid formation during hydrolysate fermentation, a portion of intentionally-contaminated seed culture F1067 at EFT=19.3 hr (from Example 1) was used as a seed culture to inoculate cob hydrolysate medium (FRF13; see General Methods) (adjusted to pH 5.8, +10 mM sorbitol) at 10 vol % (final volume) containing either 0 ppm (sample F1069) or 2 ppm (sample F1071) of Lactrol®, which was then fermented at 33° C. (reduced to 30° C. at EFT=21 hr) and pH 5.8 (adjusted with 4 N NaOH). […]

[4] = tested on: Lactobacillus plantarum strain ATCC 8014; assay: Contamination control in Z. mobilis seed medium (lactic acid formation); assay type: cell-based; settings: fermentation broth with media lacking cellulosic biomass hydrolysate
Protocol: as §1
Z. mobilis strain ZW705 (described in General Methods) inoculum was prepared by reviving 2 mL of OD-10 frozen stock in MRM3G6 medium (10 g/L BBL yeast extract, 2 g/L KH2PO4, 1 g/L MgSO4*7H2O, 60 g/L glucose, pH 5.5) at 33° C. for ˜8 hr, at which point the OD was ˜2. Lactobacillus plantarum strain ATCC 8014 inoculum was prepared by inoculating MRS medium with an individual colony and allowing growth at 33° C. for 8 hr, at which point the OD was ˜0.4.
Seed medium (10 g/L Amberex695 yeast extract, 2 g/L KH2PO4, 5 g/L MgSO4*7H2O, 10 mM sorbitol, 150 g/L glucose, pH 5.5) was prepared and sterilized by autoclaving (121° C., 30 min). […]

Compound: CC1(C)S[C@@H]2[C@H](NC(=O)Cc3ccccc3)C(=O)N2[C@H]1C(=O)O [penicillin G]
- effect on growth of / safety for Zymomonas [1]: safe for use with Zymomonas

Compound: [H]/N=C(/N)N[C@H]1[C@H](O)[C@@H](O)[C@H](O[C@@H]2O[C@@H](C)[C@](O)(C=O)[C@H]2O[C@@H]2O[C@@H](CO)[C@H](O)[C@@H](O)[C@@H]2NC)[C@@H](N/C(N)=N\[H])[C@@H]1O [streptomycin]
- effect on growth of / safety for Zymomonas [1]: inhibitory to growth

Compound: polymixin
- effect on growth of / safety for Zymomonas [1]: inhibitory to growth

Compound: virginiamycin
- growth of Zymomonas cells (OD600) compared with absence of virginiamycin [2]: improved growth
- concentration of virginiamycin that controls contaminating bacteria while maintaining typical ethanol production [3]: at least 10 ppm
- concentration of virginiamycin that controls contaminating bacteria without affecting glucose utilization and ethanol production of Zymomonas cells [4]: about 2 ppm
